Here are results for 24 compounds from ChEMBL document CHEMBL1129205, “Small peptide inhibitors of 47 mediated MAdCAM-1 adhesion to lymphocytes” (Bioorg Med Chem Lett, 1996).

Broadly, the IC50 is the point on the concentration scale where inhibition reaches its midpoint. The low end stands for higher potency, the high end for lower potency. What is called Inhibition is the relative decrease from the control value, in per cent. One may read the inhibition as the share of the control response that was lost under treatment. High values mean strong suppression, low ones little suppression.

Where only a bound is given, the exact number is not on record here.

The test system of the first test is HuT78. Briefly: Compound was tested for inhibition of MAdCAM-1/alpha-4 beta-7 mediated cell adhesion to T-cell lymphoma, HUT78 cells. Format: functional, cell-based. Particulars: Homo sapiens.
With `CCCC(CCC)C(=O)N[C@@H](CC(C)C)C(=O)N[C@@H](CC(=O)O)C(=O)N[C@H](C(=O)N[C@@H](CO)C(=O)N[C@@H](CC(C)C)C(N)=O)[C@@H](C)O`, the IC50 is greater than 1000 µM.
`CC(C)C[C@H](NC(=O)[C@H](CO)NC(=O)[C@@H](NC(=O)[C@H](CC(=O)O)NC(=O)[C@H](CC(C)C)NC(=O)C(C1CCCCC1)C1CCCCC1)[C@@H](C)O)C(N)=O`: the IC50 was greater than 1000 µM.
On the same count and under the same terms, as for `CC(C)C[C@H](NC(=O)[C@H](CO)NC(=O)[C@@H](NC(=O)[C@H](CC(=O)O)NC(=O)[C@H](CC(C)C)NC(=O)CCCc1ccc2ccc3cccc4ccc1c2c34)[C@@H](C)O)C(N)=O`, the figure is 5 µM; as for `CC(C)C[C@H](NC(=O)[C@H](CO)NC(=O)[C@@H](NC(=O)[C@H](CC(=O)O)NC(=O)[C@H](CC(C)C)NC(=O)C1c2ccccc2-c2ccccc21)[C@@H](C)O)C(N)=O`, 18.6 µM.
Still for that read-out and setting: the value for `CC(C)C[C@H](NC(=O)[C@H](CO)NC(=O)[C@@H](NC(=O)[C@H](CC(=O)O)NC(=O)[C@H](CC(C)C)NC(=O)C(c1ccccc1)c1ccccc1)[C@@H](C)O)C(N)=O` was 13.4 µM; that for `CC(C)C[C@H](NC(=O)[C@H](CO)NC(=O)[C@@H](NC(=O)[C@H](CC(=O)O)NC(=O)[C@H](CC(C)C)NC(=O)Cc1ccccc1)[C@@H](C)O)C(N)=O` was greater than 1000 µM.

System in another test: not listed separately
Briefly: Inhibition of MAdCAM-1/alpha-4 beta7-mediated cell adhesion to T-cell lymphoma, HUT78 cells at 500 uM. It counts as functional.
Conditions: not given
For `CC(=O)N[C@@H](CCCN=C(N)N)C(=O)NCC(=O)N[C@@H](CC(C)C)C(=O)N[C@@H](CC(=O)O)C(=O)N[C@H](C(=O)N[C@@H](CO)C(=O)N[C@@H](CC(C)C)C(=O)NCC(N)=O)[C@@H](C)O` (stereo in doubt; 10), the Inhibition was 36%.
The same measure, in the same setting: the value for `CC(=O)N[C@@H](CCCN=C(N)N)C(=O)NCC(=O)N[C@@H](CC(C)C)C(=O)N[C@@H](CC(=O)O)C(=O)N[C@H](C(=O)N[C@@H](CO)C(=O)N[C@@H](CC(C)C)C(=O)NCC(N)=O)[C@@H](C)O` (stereo in doubt; 4) was 75%.

Still in this test, the particulars now being: HuT78.
Consider Ac-HWRGLDTS-NH2, for which at 500 µM the inhibition was 46%.
Same read-out and setting: the value for Ac-LATSL-NH2 was 0%; that for Ac-WRGLDTSL-NH2 was 52%.
As for Ac-AAASL-NH2, at 500 µM the inhibition was 0%.
Turning to Ac-HWRGLDTSLGSV-NH2, 500 µM produced 71% inhibition.
Compound Ac-LYTSL-NH2 returned an inhibition at 500 µM of 0%.
Ac-RVHWAGLD-NH2 came in with an inhibition at 500 µM of 0%.
Ac-ADTSL-NH2 had an inhibition at 500 µM of 3%.
Consider `CC(=O)N[C@@H](CC(C)C)C(=O)N[C@H](CC(=O)O)C(=O)N[C@H](C(=O)N[C@@H](CO)C(=O)N[C@@H](CC(C)C)C(N)=O)[C@@H](C)O`, for which the inhibition at 500 µM stood at 0%.
Same read-out and setting: the value for Ac-DTSLGSVQ-NH2 was 0%.
The compound Ac-WRGLDTSLGS-NH2 came in with an inhibition at 500 µM of 71%.
Same read-out and setting: the value for `CC(C)C[C@H](NC(=O)[C@H](CO)NC(=O)[C@@H](NC(=O)[C@H](CC(=O)O)NC(=O)[C@H](CC(C)C)NC(=O)CCCc1ccc2ccc3cccc4ccc1c2c34)[C@@H](C)O)C(N)=O` was 5%; that for Ac-GLDTSLGS-NH2 was 28%.
On the same count and under the same terms, as for Ac-LDTSLGSV-NH2, the figure is 16%; as for Ac-RVHWRGLDTSLGSVQ-NH2, 88%.
The same measure, in the same setting: as for Ac-VHWRGLDT-NH2, the figure is 48%.
`CC(C)C[C@H](NC(=O)[C@H](CO)NC(=O)[C@@H](NC(=O)[C@H](CC(=O)O)NC(=O)[C@H](CC(C)C)NC(=O)C1c2ccccc2-c2ccccc21)[C@@H](C)O)C(N)=O`: the inhibition at 500 µM came to 18.6%.
Turning to Ac-LNTSL-NH2, the inhibition at 500 µM turned out to be 0%.
Still for that read-out and setting: as for `CC(C)C[C@H](NC(=O)[C@H](CO)NC(=O)[C@@H](NC(=O)[C@H](CC(=O)O)NC(=O)[C@H](CC(C)C)NC(=O)C(c1ccccc1)c1ccccc1)[C@@H](C)O)C(N)=O`, the figure is 13.4%.
